Our source for the IC50 values is publication PMC12909347, “Disconnect between in vitro and in vivo efficacy of the MPS1 inhibitor NTRC 0066-0 against glioblastoma” (Cellular Oncology, 2026).

The term IC50 denotes the concentration at which inhibition is half-maximal. Lower therefore signals inhibition by little substance.

Common to all, as to experiment: Cell survival assay, glioma stem cell line
Common to all, as to assay type: cell-based, murine

For one assay, the system named is GSC750. The settings on record: GSC750 (EgfrvIII;p15Ink4b/p16Ink4a-/-), Fig. 1C. An excerpt: (§1) All cell lines were authenticated using STR profiling. The serum-cultured GBM cell lines U87 (RRID: CVCL_0022) and HS683 (RRID: CVCL_0844) were purchased from the ATCC (Manassas, VA), T98G (RRID: CVCL_0556) and LN-428 (RRID: CVCL_3959) cells were kindly provided by Dr. Conchita Vens (Netherlands Cancer Institute, Amsterdam, The Netherlands), E98 cells were obtained from Prof. Dr. William Leenders (Radboud University Medical Center, Nijmegen, The Netherlands), and LN-751 (RRID: CVCL_3964) were generously made available by Prof. Dr. Monika Hegi (Centre Hospitalier Universitaire Vaudois, Lausanne, Switzerland). GSC lines were isolated from murine tumors that were generated by stereotactic injection of Lenti–Cre vector in the striatum of Egfr^vIII;p15^Ink4b/p16^Ink4aF/F (GSC750), Egfr^vIII;p15^Ink4b/p16^Ink4aF/F;Pten^F/F (GSC578) or Egfr^vIII;p15^Ink4b/p16^Ink4aF/F;Pten^F/F;Tp53^F/F (GSC556) mice, as previously described.
(§2) Wells were pre-coated with poly-ornithine (15 µg/ml for 3 h at room temperature) and subsequently with laminin (7.5 µg/ml for 1 h at 37 °C) prior to seeding GSCs to make them adherent without inducing differentiation. […] Cells were plated in 24-wells plates at low cell densities (2,000–10,000 cells/well) and exposed to different concentrations of NTRC0066-0 24 h later. NTRC0066-0 was dissolved in DMSO (Sigma-Aldrich) for in vitro experiments and final DMSO concentrations never exceeded 0.1%. When untreated wells were confluent (approximately 6–10 days after seeding, dependent on the cell line), cells were fixed and stained using a solution containing 0.5% crystal violet (w/v; Sigma-Aldrich) and 6% glutaraldehyde (v/v; Honeywell, Morris Plains, NJ). Plates were imaged using a Chemi-Doc XRS+ (Bio-rad, Hercules, CA) and analyzed using the Colony Area plugin of ImageJ [24]. IC50 curves were fitted and plotted using the ‘log(inhibitor) vs. normalized response – Variable slope’ fitting procedure of GraphPad Prism v10.3 (GraphPad Software, La Jolla, CA). Monotherapy curves were corrected for untreated controls.

A further assay deals with GSC556. The settings on record: GSC556 (EgfrvIII;p15Ink4b/p16Ink4a-/-;Pten-/-;Tp53-/-), Fig. 1C.
Excerpt: as §1, §2

The subject of a further assay is GSC578. The settings on record: GSC578 (EgfrvIII;p15Ink4b/p16Ink4a-/-;Pten-/-), Fig. 1C.
Excerpt: as §1, §2

Consider `CCc1cccc(CC)c1NC(=O)c1ccn2c1CCc1cnc(Nc3ccc(N4CCN(C)CC4)cc3OC)nc1-2` [NTRC 0066-0], for which the concentration for half-maximal inhibition (IC50) with GSC750 came out at 25 nM; in the assay on GSC556, 20 nM; in the assay with GSC578, 46 nM.
